Experimental data as given in patent publication US8497298B2, “Use of benzo-fused heterocycle sulfamide derivatives for lowering lipids and lowering blood glucose levels” (Janssen Pharmaceutica NV, priority 2005, dated 2013).

What was measured:
db/db mice = test: Female db/db Mouse Assay, Study A: single dose part and dose response part (Example 14); type: in vivo
Text: 0.5% Hydroxypropyl Methylcellulose (Methocel) used as vehicle/control.
Db/db mice are susceptible to Type 2 diabetes. […] All of the mice were quarantined for a period of one week before transfer to the animal procedure room. A drop of blood (about 2 microliters) was collected by tail puncture and glucose concentration was detected with a glucometer (OneTouch UltraSmart, Lifescan, Milpitas, Calif.). […] Animals were separated and single housed at least three days prior to the drug treatments to allow acclimation to the new surroundings.
In the second, dose response part of Study A, 48 mice were allocated into 4 treatment groups of 12 mice each.
The dosing volume was 5 mL/kg body weight (0.2 mL for 40 gram mice). The mice were fed ad lib throughout the study. A necropsy was completed 18 hours after last dosing.
Blood glucose levels were measured from blood collected through tail puncture using a glucometer at 1000 hour. The mice were anaesthetized with sodium pentobarbital (1 ml/kg, intraperitoneal [i.p.] injection, SleepAway, Fort Dodge, Iowa) and blood was drawn via cardiac puncture using 1 mL syringe and collected into heparinized tubes. White adipose tissues (WAT) (retroperitoneal and inguinal fat pads), brown adipose tissure (BAT) and skeletal muscles (gastrocnemius and soleus muscle) and stomach contents were dissected and weighed. Plasma samples were obtained by centrifuging whole blood at 2000˜3000 g for 10˜20 minutes at 4° C. and stored at −20° C. for further measurement of insulin, HDL, LDL, total cholesterol and triglyceride.
Plasma insulin concentrations were measured by in both studies using the appropriate rat/mouse insulin enzyme-linked immunosorbent assay (ELISA) kit (EZRMI-13K, LINCO Research, St. Charles, Mo.). Blood samples were diluted 1:4 in charcoal stripped mouse serum that was included in the ELISA kit. The rest of the procedure followed the manufacturers instruction. The total fluorescence was detected using an Orion 1 Microplate Luminometer (Berthold Detection Systems, Pforzheim, Germany).
According to manufacturers protocol, cholesterol measurement was an enzymatic method utilizing cholesterol esterase and cholesterol oxidase conversion followed by a Trinder endpoint; Elimination/catalase method was used for HDL measurement; an enzymatic method with a Trinder endpoint was used for triglyceride measurement.
Data from both parts of the Study (single dose and dose response) was analyzed using the standard two-tailed Student's t-test and are expressed below as means and standard errors.

[1] = test system: Zucker diabetic fatty (ZDF Gmi-fa/fa) rats; test: Zucker Diabetic Fatty Rats Assay with 29 day wash-out (Example 16); type: in vivo, rat; conditions: for Blood Glucose Level Day 0: Day 0 (baseline), ad lib fed; for Blood Glucose Level Day 36: then 29 days wash-out
Protocol: Compound #8 was suspended in 0.5% Methocel using a hand held homogenizer to reduce the particle size and a magnetic stir bar and stir plate to keep the particles homogeneously suspended throughout the dosing period. 0.5% Hydroxypropyl Methylcellulose (Methocel) used as vehicle/control. Compound #8 was tested in both diabetic models of mouse and rat.
In this study, female Zucker diabetic fatty (ZDF Gmi-fa/fa) rats were selected for glucose lowering effect. ZDF rats from (Charles River Laboratories, Wilmington, Mass.) at 7 weeks of age were individually housed and fed with C13004 diet (obtained from Research Diets, New Brunswick, N.J.). All of the rats were quarantined for a period of one week before transfer to the animal procedure room. A drop of blood (about 2 microliters) was collected by tail puncture and glucose concentration was detected with a glucometer (OneTouch UltraSmart, Lifescan, Milpitas, Calif.).
ZDF rats at 8 weeks of age were randomized into four treatment groups based on glucose values (first criterion, average of 150 mg/dL) and body weight (second criterion, average of 240 g). 13 rats were allocated into 4 treatment groups of 3 rats each for Compound #8 treated groups and 4 rats for the non-treated group. The three groups were then treated with 10 mg/kg Compound #8, 30 mg/kg Compound #8, and 100 mg/kg Compound #8 in 0.5 methylcellulose, respectively.
The rats were orally gavaged once daily (at 1500-1700 hour) with vehicle control (0.5% Methocel, pH7.4) or vehicle containing Compound #8 for 7 days. The dosing volume was 5 mL/kg body weight (1.2 mL for 250 gram rat). The rats were fed ad lib throughout the study. The rats were then allowed 29 days of wash-out period, where no dosing was administered.
Basal glucose levels after treatments were measured on Day 0 (baseline) and Day 36 (after 7 days dosing and 29 days wash-out) in ad lib fed rats with a glucometer (OneTouch UltraSmart, Lifescan, Milpitas, Calif.) after collecting two microliters of blood through tail puncture.
Data from this study was analyzed using the standard two-tailed Student's t-test and are expressed below as means and standard errors, with results as listed in Table 15 below.

[2] = dose response part, 10 mg/kg, plasma
[3] = dose response part, 30 mg/kg, plasma
[4] = dose response part, 100 mg/kg, plasma
[5] = single dose part, Compound #8 300 mg/kg
[6] = single dose part, Compound #8 300 mg/kg oral once daily 10 days
[7] = single dose part, Compound #8 300 mg/kg, plasma

## NS(=O)(=O)NC[C@H]1COc2cc(Cl)ccc2O1 [Compound #8, (2S)-(−)-N-(6-Chloro-2,3-dihydro-benzo[1,4]dioxin-2-ylmethyl)-sulfamide]
db/db mice; Compound #8, dose not given
  total cholesterol concentrations elevated relative to vehicle: 18.7%
db/db mice; dose response part, 10 mg/kg
  Brown Adipose Tissue: 0.23 ± 0.01 g
  Inguinal fat: 2.15 ± 0.11 g
  Insulin: 11.9 ± 2.5 ng/mL
  Muscle: 0.140 ± 0.004 g
  Ratio (Triglyceride to HDL): 3.5 ± 0.3
  Ratio (fat/muscle): 25.9 ± 0.8
  Retroperitoneal fat: 1.47 ± 0.04 g
db/db mice; dose response part, 10 mg/kg oral once daily 10 days
  Glucose: 420 ± 10 mg/dL
db/db mice; [2]
  Cholesterol: 92 ± 3 mg/dL
  HDL: 47.1 ± 1.5 mg/dL
  Triglyceride: 166 ± 13 mg/dL
db/db mice; dose response part, 30 mg/kg
  Brown Adipose Tissue: 0.22 ± 0.01 g
  Inguinal fat: 1.97 ± 0.07 g
  Insulin: 10.8 ± 2.9 ng/mL
  Muscle: 0.141 ± 0.003 g
  Ratio (Triglyceride to HDL): 4.1 ± 0.3
  Ratio (fat/muscle): 24.5 ± 0.5
  Retroperitoneal fat: 1.49 ± 0.07 g
db/db mice; dose response part, 30 mg/kg oral once daily 10 days
  Glucose: 439 ± 13 mg/dL
db/db mice; [3]
  Cholesterol: 95 ± 2 mg/dL
  HDL: 49.2 ± 1.7 mg/dL
  Triglyceride: 202 ± 18 mg/dL
db/db mice; dose response part, 100 mg/kg
  Brown Adipose Tissue: 0.24 ± 0.00 g
  Inguinal fat: 2.05 ± 0.09 g
  Insulin: 3.9 ± 1.4 ng/mL
  Muscle: 0.140 ± 0.007 g
  Ratio (Triglyceride to HDL): 3.3 ± 0.3
  Ratio (fat/muscle): 26.3 ± 1.0
  Retroperitoneal fat: 1.55 ± 0.11 g
  hyperinsulinemia decreased compared to vehicle treated mice: 63.5%
db/db mice; dose response part, 100 mg/kg oral once daily 10 days
  Glucose: 394 ± 17 mg/dL
db/db mice; dose response part, 100 mg/kg, control 0.35±0.03 g, p<0.05
  stomach content: 0.51 ± 0.04 g
db/db mice; [4]
  Cholesterol: 102 ± 3 mg/dL
  HDL: 51.7 ± 1.7 mg/dL
  Triglyceride: 169 ± 10 mg/dL
db/db mice; dose response part, 10, 30 and 100 mg/kg groups
  food intake and body weight: no differences
db/db mice; single dose part, 300 mg/kg
  Glucose levels reduced compared to vehicle treated mice: 50%
  HDL elevated compared to vehicle: 22.8%
  plasma triglyceride decreased compared to vehicle: 39.4%
  ratio of triglyceride to HDL reduced: 50.2%
  stomach content weights versus vehicle at the end of the experiment: two times greater
db/db mice; [5]
  Brown Adipose Tissue: 0.25 ± 0.01 g
  Final weight Body weight: 39 ± 0.9 g
  Final weight Stomach contents: 0.52 ± 0.07 g
  Inguinal fat: 2.28 ± 0.11 g
  Muscle: 0.154 ± 0.00 g
  Retroperitoneal fat: 1.31 ± 0.07 g
  Total chow consumption Day 1-3: 14 ± 0.9 g
  Total chow consumption Day 4-6: 14.9 ± 1.1 g
  Total chow consumption Day 7-9: 16 ± 0.6 g
db/db mice; [6]
  Glucose: 210 ± 27 mg/dL
  Insulin: 16.0 ± 2.5 ng/mL
db/db mice; [7]
  Cholesterol: 108 ± 3 mg/dL
  HDL: 55.9 ± 1.2 mg/dL
  LDL: 3.4 ± 0.2 mg/dL
  Ratio (Triglyceride to HDL): 1.8 ± 0.3
  Triglyceride: 98 ± 13 mg/dL
db/db mice; single dose part, Compound #8 300 mg/kg, total inguinal and retroperitoneal fat/muscle weight
  Ratio (fat/muscle): 23.4 ± 0.9
[1]; 10 mg/kg group
  Blood Glucose Level Day 0: 222 ± 20 mg/dL
[1]; 10 mg/kg oral once daily 7 days
  Blood Glucose Level Day 36: 295 ± 81 mg/dL
[1]; 30 mg/kg group
  Blood Glucose Level Day 0: 229 ± 23 mg/dL
[1]; 30 mg/kg oral once daily 7 days
  Blood Glucose Level Day 36: 247 ± 86 mg/dL
[1]; 100 mg/kg group
  Blood Glucose Level Day 0: 228 ± 18 mg/dL
[1]; 100 mg/kg oral once daily 7 days
  Blood Glucose Level Day 36: 219 ± 39 mg/dL
